Source: PubChem BioAssay (NCI)
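GI50 is the concentration that inhibits growth by half. Definition used: TGI = concentration required for complete inhibition of growth.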

What was measured:
Assay in all cases: NCI anticancer screen, dose series, 384-well format
RXF 393 renal = system: RXF 393 renal
786-0 renal = system: 786-0 renal
A498 renal = system: A498 renal
A549 NSCLC = system: A549 NSCLC
ACHN renal = system: ACHN renal
BT-549 breast = system: BT-549 breast
CAKI-1 renal = system: CAKI-1 renal
COLO 205 colon = system: COLO 205 colon
DU-145 prostate = system: DU-145 prostate
EKVX NSCLC = system: EKVX NSCLC
HCC-2998 colon = system: HCC-2998 colon
HCT-116 colon = system: HCT-116 colon
HCT-15 colon = system: HCT-15 colon
HOP-62 NSCLC = system: HOP-62 NSCLC
HOP-92 NSCLC = system: HOP-92 NSCLC
HS 578T breast = system: HS 578T breast
HT29 colon = system: HT29 colon
IGROV1 ovarian = system: IGROV1 ovarian
K-562 leukemia = system: K-562 leukemia
KM12 colon = system: KM12 colon
LOX IMVI melanoma = system: LOX IMVI melanoma
M14 melanoma = system: M14 melanoma
MALME-3M melanoma = system: MALME-3M melanoma
MCF7 breast = system: MCF7 breast
MDA-MB-231 breast = system: MDA-MB-231 breast
MDA-MB-435 melanoma = system: MDA-MB-435 melanoma
MDA-MB-468 breast = system: MDA-MB-468 breast
MOLT-4 leukemia = system: MOLT-4 leukemia
NCI-H226 lung = system: NCI-H226 lung
NCI-H23 lung = system: NCI-H23 lung
NCI-H322M lung = system: NCI-H322M lung
NCI-H522 lung = system: NCI-H522 lung
NCI/ADR-RES ovarian = system: NCI/ADR-RES ovarian
OVCAR-3 ovarian = system: OVCAR-3 ovarian
OVCAR-4 ovarian = system: OVCAR-4 ovarian
OVCAR-5 ovarian = system: OVCAR-5 ovarian
OVCAR-8 ovarian = system: OVCAR-8 ovarian
PC-3 prostate = system: PC-3 prostate
RPMI-8226 leukemia = system: RPMI-8226 leukemia
SF-268 CNS = system: SF-268 CNS
SF-295 CNS = system: SF-295 CNS
SF-539 CNS = system: SF-539 CNS
SK-MEL-28 melanoma = system: SK-MEL-28 melanoma
SK-MEL-5 melanoma = system: SK-MEL-5 melanoma
SK-OV-3 ovarian = system: SK-OV-3 ovarian
SN12C renal = system: SN12C renal
SNB-19 CNS = system: SNB-19 CNS
SNB-75 CNS = system: SNB-75 CNS
SW-620 colon = system: SW-620 colon
T-47D breast = system: T-47D breast
TK-10 renal = system: TK-10 renal
U251 glioblastoma = system: U251 glioblastoma
UACC-257 melanoma = system: UACC-257 melanoma
UACC-62 melanoma = system: UACC-62 melanoma
UO-31 renal = system: UO-31 renal

N#Cc1ccc(C(c2ccc(C#N)cc2)n2cncn2)cc1
GI50 (RXF 393 renal): 16.8 µM | TGI (RXF 393 renal): 97.8 µM

Cc1c(NC(=O)OC[C@@H]2COCCN2)cn2ncnc(Nc3ccc4c(cnn4Cc4cccc(F)c4)c3)c12
GI50 ([…]-0 renal): 1.42 µM | TGI (786-0 renal): 2.91 µM | GI50 (A498 renal): 1.4 µM | TGI (A498 renal): 3.24 µM | GI50 (A549 NSCLC): 2.82 µM | TGI (A549 NSCLC): 13.6 µM | GI50 (ACHN renal): 0.815 µM | TGI (ACHN renal): 12.7 µM | GI50 (BT-549 breast): 2.03 µM | TGI (BT-549 breast): 4.36 µM | GI50 (CAKI-1 renal): 1.9 µM | TGI (CAKI-1 renal): 14.3 µM | GI50 (COLO 205 colon): 2.96 µM | TGI (COLO 205 colon): 7.54 µM | GI50 (DU-145 prostate): 2.44 µM | TGI (DU-145 prostate): 13.6 µM | GI50 (EKVX NSCLC): 1.02 µM | TGI (EKVX NSCLC): 5.16 µM | GI50 (HCC-2998 colon): 1.66 µM | TGI (HCC-2998 colon): 3.61 µM | GI50 (HCT-116 colon): 2.35 µM | TGI (HCT-116 colon): 4.88 µM | GI50 (HCT-15 colon): 2.19 µM | TGI (HCT-15 colon): 5.47 µM | GI50 (HOP-62 NSCLC): 2.01 µM | TGI (HOP-62 NSCLC): 9.3 µM | GI50 (HOP-92 NSCLC): 2.46 µM | TGI (HOP-92 NSCLC): 9.57 µM | GI50 (HS 578T breast): 2.33 µM | TGI (HS 578T breast): 5.32 µM | GI50 (HT29 colon): 1.81 µM | TGI (HT29 colon): 3.47 µM | GI50 (IGROV1 ovarian): 0.0935 µM | TGI (IGROV1 ovarian): 4.96 µM | GI50 (K-562 leukemia): 1.79 µM | TGI (K-562 leukemia): 3.32 µM | GI50 (KM12 colon): 3.74 µM | TGI (KM12 colon): 13.5 µM | GI50 (LOX IMVI melanoma): 1.7 µM | TGI (LOX IMVI melanoma): 3.2 µM | GI50 (M14 melanoma): 2.08 µM | TGI (M14 melanoma): 4.29 µM | GI50 (MALME-3M melanoma): 2.23 µM | TGI (MALME-3M melanoma): 4.77 µM | GI50 (MCF7 breast): 3 µM | TGI (MCF7 breast): 10.4 µM | GI50 (MDA-MB-231 breast): 1.92 µM | TGI (MDA-MB-231 breast): 4.65 µM | GI50 (MDA-MB-435 melanoma): 4.66 µM | TGI (MDA-MB-435 melanoma): 13.3 µM | GI50 (MDA-MB-468 breast): 0.0222 µM | TGI (MDA-MB-468 breast): 0.0701 µM | GI50 (MOLT-4 leukemia): 1.69 µM | TGI (MOLT-4 leukemia): 3.35 µM | GI50 (NCI-H226 lung): 5.08 µM | TGI (NCI-H226 lung): 18.1 µM | GI50 (NCI-H23 lung): 3.6 µM | TGI (NCI-H23 lung): 12.4 µM | GI50 (NCI-H322M lung): 0.363 µM | TGI (NCI-H322M lung): 11.1 µM | GI50 (NCI-H522 lung): 0.255 µM | TGI (NCI-H522 lung): 3.82 µM | GI50 (NCI/ADR-RES ovarian): 12.6 µM | TGI (NCI/ADR-RES ovarian): 25.2 µM | GI50 (OVCAR-3 ovarian): 2.67 µM | TGI (OVCAR-3 ovarian): 9.15 µM | GI50 (OVCAR-4 ovarian): 3.75 µM | TGI (OVCAR-4 ovarian): 12.4 µM | GI50 (OVCAR-5 ovarian): 3.37 µM | TGI (OVCAR-5 ovarian): 16.1 µM | GI50 (OVCAR-8 ovarian): 4.46 µM | TGI (OVCAR-8 ovarian): 16.2 µM | GI50 (PC-3 prostate): 3 µM | TGI (PC-3 prostate): 7.88 µM | GI50 (RPMI-8226 leukemia): 2.29 µM | TGI (RPMI-8226 leukemia): 4.19 µM | GI50 (RXF 393 renal): 1.67 µM | TGI (RXF 393 renal): 3.34 µM | GI50 (SF-268 CNS): 0.943 µM | TGI (SF-268 CNS): 3.78 µM | GI50 (SF-295 CNS): 2.28 µM | TGI (SF-295 CNS): 4.89 µM | GI50 (SF-539 CNS): 1.95 µM | TGI (SF-539 CNS): 3.86 µM | GI50 (SK-MEL-28 melanoma): 2.15 µM | TGI (SK-MEL-28 melanoma): 4.05 µM | GI50 (SK-MEL-5 melanoma): 1.51 µM | TGI (SK-MEL-5 melanoma): 2.9 µM | GI50 (SK-OV-3 ovarian): 1.77 µM | TGI (SK-OV-3 ovarian): 5.72 µM | GI50 (SN12C renal): 1.96 µM | TGI (SN12C renal): 14.4 µM | GI50 (SNB-19 CNS): 3.72 µM | TGI (SNB-19 CNS): 13.8 µM | GI50 (SNB-75 CNS): 2.96 µM | TGI (SNB-75 CNS): 9 µM | GI50 (SW-620 colon): 3.8 µM | TGI (SW-620 colon): 12 µM | GI50 (T-47D breast): 0.0467 µM | TGI (T-47D breast): 1.06 µM | GI50 (TK-10 renal): 0.661 µM | TGI (TK-10 renal): 3.48 µM | GI50 (U251 glioblastoma): 1.91 µM | TGI (U251 glioblastoma): 3.54 µM | GI50 (UACC-257 melanoma): 2.03 µM | TGI (UACC-257 melanoma): 3.98 µM | GI50 (UACC-62 melanoma): 1.91 µM | TGI (UACC-62 melanoma): 3.56 µM | GI50 (UO-31 renal): 1.47 µM | TGI (UO-31 renal): 3.73 µM
